# In ChEMBL document CHEMBL3875173, “Phenyltetrazolyl-phenylamides: Substituent impact on modulation capability and selectivity toward the efflux protein ABCG2 and investigation of interaction with the transporter” (Eur J Med Chem, 2016):
# pIC50: −log10 of the molar value.
# Assays:
# [1] = molecular target: T1, Broad substrate specificity ATP-binding cassette transporter ABCG2 (Homo sapiens, UniProt Q9UNQ0); assay: Inhibition of recombinant human GFP-fused ABCG2 expressed in MDCK2 cells assessed as reduction in pheophorbide A efflux preincubated for 30 mins followed by pheophorbide A addition measured after 2 hrs by flow cytometry; type: cell-based, MDCK-II
# T1 sequence (Q9UNQ0 whole entry): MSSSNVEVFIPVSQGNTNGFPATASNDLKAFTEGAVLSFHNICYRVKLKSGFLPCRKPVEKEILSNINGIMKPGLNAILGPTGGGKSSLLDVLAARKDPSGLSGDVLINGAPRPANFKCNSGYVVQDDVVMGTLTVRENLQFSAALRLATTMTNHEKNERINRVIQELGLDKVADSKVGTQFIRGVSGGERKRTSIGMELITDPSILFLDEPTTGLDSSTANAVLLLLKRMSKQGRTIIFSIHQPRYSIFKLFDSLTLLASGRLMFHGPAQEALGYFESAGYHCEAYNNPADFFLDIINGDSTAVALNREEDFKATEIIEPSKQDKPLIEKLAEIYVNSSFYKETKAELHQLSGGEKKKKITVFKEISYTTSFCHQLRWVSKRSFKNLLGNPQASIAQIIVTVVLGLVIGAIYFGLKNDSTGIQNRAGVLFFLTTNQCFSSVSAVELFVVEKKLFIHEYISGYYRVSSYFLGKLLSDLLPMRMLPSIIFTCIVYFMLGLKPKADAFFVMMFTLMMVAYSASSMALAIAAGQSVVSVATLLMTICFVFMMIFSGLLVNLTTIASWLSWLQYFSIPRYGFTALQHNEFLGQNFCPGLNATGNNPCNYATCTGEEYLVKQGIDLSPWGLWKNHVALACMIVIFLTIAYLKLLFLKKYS
# ABCG2 [2] = molecular target: T2, ABCG2 (Homo sapiens, UniProt Q9UNQ0); assay: Inhibition of recombinant human GFP-fused ABCG2 expressed in MDCK2 cells assessed as reduction in pheophorbide A efflux at 10 uM preincubated for 30 mins followed by pheophorbide A addition measured after 2 hrs by flow cytometry relative to XR9577; type: cell-based, MDCK-II; conditions: MDCK2 cells expressing recombinant human GFP-fused ABCG2, probe pheophorbide A, read-out: Imax
# T2 sequence (Q9UNQ0 whole entry): T1 sequence (Q9UNQ0 whole entry)
# ABCB1 [3] = molecular target: T3, ABCB1 (Homo sapiens, UniProt P08183); assay: Inhibition of ABCB1 in human A2780/ADR cells assessed as reduction in calcien-AM efflux at 10 uM preincubated for 30 mins followed by calcien-AM addition measured immediately at 60 sec time interval for 60 mins by fluorescence assay relative to cyclosporine A; type: cell-based; conditions: probe calcein-AM (printed calcien-AM), read-out: Imax
# T3 sequence (P08183 whole entry, the tested form may be a part): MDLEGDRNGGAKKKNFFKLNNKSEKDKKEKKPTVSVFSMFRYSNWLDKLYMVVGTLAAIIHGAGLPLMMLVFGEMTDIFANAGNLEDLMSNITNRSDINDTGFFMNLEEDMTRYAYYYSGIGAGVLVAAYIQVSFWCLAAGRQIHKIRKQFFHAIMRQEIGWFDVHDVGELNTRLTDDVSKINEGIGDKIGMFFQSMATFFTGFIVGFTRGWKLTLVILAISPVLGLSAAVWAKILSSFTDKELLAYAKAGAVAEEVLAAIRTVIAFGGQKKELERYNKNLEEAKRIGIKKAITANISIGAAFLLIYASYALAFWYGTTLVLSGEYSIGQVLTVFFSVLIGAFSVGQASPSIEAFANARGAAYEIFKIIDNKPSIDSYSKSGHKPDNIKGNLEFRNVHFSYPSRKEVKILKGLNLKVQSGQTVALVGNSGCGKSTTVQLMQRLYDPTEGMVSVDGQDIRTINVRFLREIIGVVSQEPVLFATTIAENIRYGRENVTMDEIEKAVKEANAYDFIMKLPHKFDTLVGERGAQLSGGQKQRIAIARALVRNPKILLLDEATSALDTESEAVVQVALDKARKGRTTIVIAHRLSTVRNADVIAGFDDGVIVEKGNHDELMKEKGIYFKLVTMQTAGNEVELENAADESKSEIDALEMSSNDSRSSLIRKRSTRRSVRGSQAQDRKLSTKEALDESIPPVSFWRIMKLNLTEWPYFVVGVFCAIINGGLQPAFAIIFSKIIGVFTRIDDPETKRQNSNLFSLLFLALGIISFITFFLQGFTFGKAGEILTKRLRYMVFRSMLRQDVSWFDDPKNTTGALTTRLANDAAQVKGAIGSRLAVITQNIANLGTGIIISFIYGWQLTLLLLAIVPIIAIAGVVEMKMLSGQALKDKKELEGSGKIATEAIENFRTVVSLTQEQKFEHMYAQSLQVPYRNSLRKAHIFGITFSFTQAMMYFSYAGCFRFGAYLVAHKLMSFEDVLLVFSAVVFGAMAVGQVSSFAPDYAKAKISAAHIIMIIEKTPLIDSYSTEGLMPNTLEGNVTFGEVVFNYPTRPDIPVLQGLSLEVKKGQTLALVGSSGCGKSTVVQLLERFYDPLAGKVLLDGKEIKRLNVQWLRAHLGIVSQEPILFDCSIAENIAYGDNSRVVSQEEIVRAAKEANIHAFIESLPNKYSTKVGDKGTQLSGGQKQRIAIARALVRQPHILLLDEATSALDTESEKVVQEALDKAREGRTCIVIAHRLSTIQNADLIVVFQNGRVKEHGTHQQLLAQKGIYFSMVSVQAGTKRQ
# [4] = molecular target: T1, Broad substrate specificity ATP-binding cassette transporter ABCG2; assay: Inhibition of recombinant human GFP-fused ABCG2 expressed in MDCK2 cells assessed as reduction in Hoechst 33342 efflux preincubated for 30 mins followed by Hoechst 33342 addition measured immediately at 60 sec time interval for 120 mins by fluorescence assay; type: cell-based, MDCK-II
# [5] = molecular target: ATP-dependent translocase ABCB1 (Homo sapiens, UniProt P08183); assay: Inhibition of ABCB1 in human A2780/ADR cells assessed as reduction in calcien-AM efflux preincubated for 30 mins followed by calcien-AM addition measured immediately at 60 sec time interval for 60 mins by fluorescence assay; type: cell-based
# ATP-dependent translocase ABCB1, sequence (P08183 whole entry, the tested form may be a part): as above
# ABCG2 [6] = molecular target: T2, ABCG2; assay: Inhibition of recombinant human GFP-fused ABCG2 expressed in MDCK2 cells assessed as reduction in Hoechst 33342 efflux at 10 uM preincubated for 30 mins followed by Hoechst 33342 addition measured immediately at 60 sec time interval for 120 mins by fluorescence assay relative to XR9577; type: cell-based, MDCK-II; conditions: MDCK2 cells expressing recombinant human GFP-fused ABCG2, probe Hoechst 33342, read-out: Imax
# ABCB1 [7] = molecular target: T3, ABCB1; assay: Potency index, ratio of cyclosporine A IC50 to compound IC50 for ABCB1 in human A2780/ADR cells; type: cell-based; conditions: read-out: Ratio IC50
# [8] = molecular target: T1, Broad substrate specificity ATP-binding cassette transporter ABCG2; assay: Non-competitive inhibition of recombinant human GFP-fused ABCG2 expressed in MDCK2 cells assessed as reduction in pheophorbide A efflux at 0.0178 to 0.1 uM preincubated for 30 mins followed by addition of varying levels of pheophorbide A by Lineweaver-Burk plot analysis; type: cell-based; conditions: mdck-ii
# [9] = molecular target: T1, Broad substrate specificity ATP-binding cassette transporter ABCG2; assay: Competitive inhibition of recombinant human GFP-fused ABCG2 expressed in MDCK2 cells assessed as reduction in Hoechst 33342 efflux at 0.01 to 0.1 uM preincubated for 30 mins followed by addition of varying levels of Hoechst 33342 by Lineweaver-Burk plot analysis; type: cell-based; conditions: mdck-ii
# ABCG2 [10] = molecular target: T2, ABCG2; assay: Potency index, ratio of Ko143 IC50 to compound IC50 for recombinant human GFP-fused ABCG2 expressed in MDCK2 cells assessed as reduction in Hoechst 33342 efflux; type: cell-based; conditions: MDCK2 cells expressing recombinant human GFP-fused ABCG2, probe Hoechst 33342, read-out: Ratio IC50
# ABCG2 [11] = molecular target: T2, ABCG2; assay: Potency index, ratio of Ko143 IC50 to compound IC50 for recombinant human GFP-fused ABCG2 expressed in MDCK2 cells assessed as reduction in pheophorbide A efflux; type: cell-based; conditions: MDCK2 cells expressing recombinant human GFP-fused ABCG2, probe pheophorbide A, read-out: Ratio IC50
SMILES,pIC50 [1],"Emax at 2 h, 10 µM (ABCG2 [2]) [%]","inhibition at 1 h, 10 µM (ABCB1 [3]) [%]",pIC50 [4],pIC50 [5],"Emax at 2 h, 10 µM (ABCG2 [6]) [%]",selectivity ratio (ABCB1 [7]),inhibition (INH) [8],inhibition (INH) [9],selectivity ratio (ABCG2 [10]),selectivity ratio (ABCG2 [11])
CSc1ccc(-n2nnc(-c3ccccc3NC(=O)c3ccccc3[N+](=O)[O-])n2)cc1,6.93,77,≤ 25,6.66,5.01,91,–,–,–,–,–
CSc1ccc(-n2nnc(-c3ccccc3NC(=O)c3ccc([N+](=O)[O-])cc3)n2)cc1,–,–,–,< 5.00,–,–,–,–,–,–,–
COc1ccc(-n2nnc(-c3ccccc3NC(=O)c3cccc([N+](=O)[O-])c3)n2)cc1,6.61,56,–,6.77,–,57,–,–,–,–,–
COc1ccc(C(=O)Nc2ccccc2-c2nnn(-c3ccc(SC)cc3)n2)cc1,6.60,85,≤ 25,6.88,5.38,100,–,–,–,–,–
CC(C)c1ccc(-n2nnc(-c3ccccc3NC(=O)c3ccc(C(F)(F)F)cc3)n2)cc1,–,–,–,< 5.00,–,–,–,–,–,–,–
CCOc1ccc(-n2nnc(-c3ccccc3NC(=O)c3ccccc3[N+](=O)[O-])n2)cc1,–,–,–,6.51,–,72,–,–,–,–,–
COc1ccc(-n2nnc(-c3ccccc3NC(=O)c3ccccc3)n2)cc1OC,6.67,95,≤ 25,6.64,5.39,104,–,–,–,–,–
CCCc1ccc(C(=O)Nc2ccccc2-c2nnn(-c3ccc(Oc4ccccc4)cc3)n2)cc1,–,–,–,< 5.00,–,–,–,–,–,–,–
CCCc1ccc(C(=O)Nc2ccccc2-c2nnn(-c3ccc(O)cc3)n2)cc1,6.89,107,≤ 25,6.69,6.36,106,3,–,–,–,–
COc1ccc(C(=O)Nc2ccccc2-c2nnn(-c3ccc(Cl)cc3)n2)cc1,–,–,–,6.65,–,59,–,–,–,–,–
COc1ccc(C(=O)Nc2ccccc2-c2nnn(-c3ccc(OC)cc3)n2)cc1,6.52,92,≤ 25,6.70,5.54,100,–,–,–,–,–
COc1ccc(C(=O)Nc2ccccc2-c2nnn(-c3ccc(C(C)C)cc3)n2)cc1,6.88,95,≤ 25,6.87,4.71,97,–,–,–,–,–
COc1ccc(C(=O)Nc2ccccc2-c2nnn(-c3ccc(OC)c(OC)c3)n2)cc1,–,–,≤ 25,6.50,5.49,100,–,–,–,–,–
COc1ccc(C(=O)Nc2ccccc2-c2nnn(-c3ccc(Oc4ccccc4)cc3)n2)cc1,–,–,–,< 5.00,–,–,–,–,–,–,–
CSc1ccc(-n2nnc(-c3ccccc3NC(=O)c3ccc(C(F)(F)F)cc3)n2)cc1,–,–,–,< 5.00,–,–,–,–,–,–,–
O=C(Nc1ccccc1-c1nnn(-c2ccc(Cl)cc2)n1)c1ccc([N+](=O)[O-])cc1,–,–,–,< 5.00,–,–,–,–,–,–,–
CCCc1ccc(C(=O)Nc2ccccc2-c2nnn(-c3ccc(OC(=O)c4ccc(CCC)cc4)cc3)n2)cc1,–,–,–,< 5.00,–,–,–,–,–,–,–
COc1ccc(-n2nnc(-c3ccccc3NC(=O)c3ccccc3[N+](=O)[O-])n2)cc1,6.51,61,≤ 25,6.58,5.21,76,–,–,–,–,–
COc1ccc(-n2nnc(-c3ccccc3NC(=O)c3ccc(C(F)(F)F)cc3)n2)cc1OC,–,–,≤ 25,6.48,4.99,80,–,–,–,–,–
COc1ccc(C(=O)Nc2ccccc2-c2nnn(-c3ccccc3)n2)cc1OC,6.29,86,–,6.08,–,102,–,–,–,–,–
O=C(Nc1ccccc1-c1nnn(-c2ccccc2)n1)c1ccc(C(F)(F)F)cc1,5.44,100,–,5.36,–,100,–,–,–,–,–
COc1ccc(C(=O)Nc2ccccc2-c2nnn(-c3ccccc3)n2)cc1,6.68,93,≤ 25,6.70,5.26,101,–,Active,Active,–,–
O=C(Nc1ccccc1-c1nnn(-c2ccccc2)n1)c1ccccc1,7.19,109,≤ 25,7.17,4.66,90,–,–,–,3 to 4,3 to 4
CCCc1ccc(C(=O)Nc2ccccc2-c2nnn(-c3ccc(SC)cc3)n2)cc1,6.17,69,–,6.11,–,76,–,–,–,–,–
O=C(Nc1ccccc1-c1nnn(-c2ccccc2)n1)c1ccc([N+](=O)[O-])cc1,6.49,69,–,6.82,–,60,–,–,–,–,–
CCCc1ccc(C(=O)Nc2ccccc2-c2nnn(-c3ccccc3)n2)cc1,7.02,85,≤ 25,6.67,5.09,100,–,–,–,–,–
O=C(Nc1ccccc1-c1nnn(-c2ccccc2)n1)c1ccccc1[N+](=O)[O-],6.34,76,< 10,6.55,–,57,–,–,–,–,–
CCOc1ccc(-n2nnc(-c3ccccc3NC(=O)c3ccc(OC)cc3)n2)cc1,–,–,–,6.10,–,50,–,–,–,–,–
O=C(Nc1ccccc1-c1nnn(-c2ccccc2)n1)c1cccc([N+](=O)[O-])c1,6.91,98,≤ 25,6.90,5.03,91,–,–,–,–,–
